# In patent USRE39591E1, “6-O-substituted ketolides having antibacterial activity” (Abbott Laboratories, priority 1996, dated 2007):
# Test system: up to 32 different microorganisms
# Test: in vitro antibacterial activity (MIC), agar dilution on Brain Heart Infusion (BHI) agar with Steers replicator
# Format: cell-based
# Details: unit assumed
# Experimental: Representative compounds of the present invention were assayed in vitro for antibacterial activity as follows: Twelve petri dishes containing successive aqueous dilutions of the test compound mixed with 10 mL of sterilized Brain Heart Infusion (BHI) agar (Difco 0148-01-5) were prepared. Each plate was inoculated with 1:100 (or 1:10 for slow-growing strains, such as Micrococcus and Streptococcus) dilutions of up to 32 different microorganisms, using a Steers replicator block. The inoculated plates were incubated at 35°-37° C. for 20 to 24 hours. In addition, a control plate, using BHI agar containing no test compound, was prepared and incubated at the beginning and end of each test.
# An additional plate containing a compound having known susceptibility patterns for the organisms being tested and belonging to the same antibiotic class as the test compound was also prepared and incubated as a further control, as well as to provide test-to-test comparability. Erythromycin A was used for this purpose.
# After incubation, each plate was visually inspected. The minimum inhibitory concentration (MIC) was defined as the lowest concentration of drug yielding no growth, a slight haze, or sparsely isolated colonies on the inoculum spot as compared to the growth control.
smiles,measurement,setting,value
"CC[C@H]1OC(=O)[C@H](C)C(=O)[C@H](C)[C@@H](O[C@@H]2O[C@H](C)C[C@H](N(C)C)[C@H]2O)[C@@](C)(OCC#Cc2ccc3ccccc3c2)C[C@@H](C)C(=O)[C@H](C)[C@H]2NC(=O)O[C@@]21C [Example 251, Compound of Formula (IX): L is CO, T is NH, R is —CH2—C≡C-(2-naphthyl)]",MIC,organism code AA,0.1 µg/mL
same,MIC,organism code BB,0.1 µg/mL
same,MIC,organism code CC,> 100 µg/mL
same,MIC,organism code DD,0.1 µg/mL
same,MIC,organism code EE,0.1 µg/mL
same,MIC,organism code FF,0.1 µg/mL
same,MIC,organism code GG,> 100 µg/mL
same,MIC,organism code HH,0.1 µg/mL
same,MIC,organism code II,0.1 µg/mL
same,MIC,organism code JJ,0.02 µg/mL
same,MIC,organism code KK,0.05 µg/mL
same,MIC,organism code LL,0.05 µg/mL
same,MIC,organism code MM,6.2 µg/mL
same,MIC,organism code NN,0.2 µg/mL
same,MIC,organism code OO,0.02 µg/mL
same,MIC,organism code PP,0.2 µg/mL
same,MIC,organism code QQ,> 100 µg/mL
same,MIC,organism code RR,1.56 µg/mL
same,MIC,organism code SS,> 100 µg/mL
same,MIC,organism code TT,> 100 µg/mL
same,MIC,organism code UU,0.2 µg/mL
same,MIC,organism code VV,0.05 µg/mL
same,MIC,organism code WW,16 µg/mL
same,MIC,organism code XX,0.125 µg/mL
same,MIC,organism code YY,0.25 µg/mL
same,MIC,organism code ZZ,> 128 µg/mL
same,MIC,organism code ZZA,1 µg/mL
"C=CCOC1(C)CC(C)C(=NO)C(C)C(O)C(C)(O)C(CC)OC(=O)C(C)C(=O)C(C)C1OC1OC(C)CC(N(C)C)C1O (stereo not shown) [Example 2, Compound of Formula (VIII): X is NOH, R is allyl]",MIC,Candida albicans CCH 442 (code TT),> 100 µg/mL
same,MIC,Enterococcus faecism ATCC 8043 (code II),6.2 µg/mL
same,MIC,Escherichia coli DC-2 (code SS),> 100 µg/mL
same,MIC,Escherichia coli JUHL (code QQ),> 100 µg/mL
same,MIC,Escherichia coli SS (code RR),3.1 µg/mL
same,MIC,Micrococcus luteus ATCC 4698 (code PP),3.1 µg/mL
same,MIC,Micrococcus luteus ATCC 9341 (code OO),1.56 µg/mL
same,MIC,Mycobacterium smegmatis ATCC 114 (code UU),25 µg/mL
same,MIC,Nocardia Asteroides ATCC9970 (code VV),0.2 µg/mL
same,MIC,Staphylococcus aureus 1775 (code GG),> 100 µg/mL
same,MIC,Staphylococcus aureus A5177 (code BB),3.1 µg/mL
same,MIC,Staphylococcus aureus A-5278 (code CC),> 100 µg/mL
same,MIC,Staphylococcus aureus ATCC 6538P (code AA),3.1 µg/mL
same,MIC,Staphylococcus aureus CMX 553 (code FF),3.1 µg/mL
same,MIC,Staphylococcus aureus CMX 642A (code DD),3.1 µg/mL
same,MIC,Staphylococcus aureus NCTC10649M (code EE),1.56 µg/mL
same,MIC,Staphylococcus epidermidis 3519 (code HH),6.2 µg/mL
same,MIC,Streptococcus agalactiae CMX 508 (code KK),1.56 µg/mL
same,MIC,Streptococcus bovis A-5169 (code JJ),3.1 µg/mL
same,MIC,Streptococcus pyogenes 930 (code MM),> 100 µg/mL
same,MIC,Streptococcus pyogenes EES61 (code LL),3.1 µg/mL
same,MIC,Streptococcus pyogenes PIU 2548 (code NN),3.1 µg/mL
"CCC1OC(=O)C(C)C(=O)C(C)C(OC2OC(C)CC(N(C)C)C2O)C(C)(OCC=Cc2cnc3ccc(F)cc3c2)CC(C)C(=O)C(C)C2NC(=O)OC12C (stereo not shown) [Example 215, R is —CH2CH═CH-(6-fluoro-3-quinolyl)]",MIC,organism code AA,0.05 µg/mL
same,MIC,organism code BB,0.1 µg/mL
same,MIC,organism code CC,> 100 µg/mL
same,MIC,organism code DD,0.1 µg/mL
same,MIC,organism code EE,0.1 µg/mL
same,MIC,organism code FF,0.1 µg/mL
same,MIC,organism code GG,> 100 µg/mL
same,MIC,organism code HH,0.1 µg/mL
same,MIC,organism code II,0.05 µg/mL
same,MIC,organism code JJ,0.01 µg/mL
same,MIC,organism code KK,0.01 µg/mL
same,MIC,organism code LL,0.01 µg/mL
same,MIC,organism code MM,0.78 µg/mL
same,MIC,organism code NN,0.1 µg/mL
same,MIC,organism code OO,0.01 µg/mL
same,MIC,organism code PP,0.2 µg/mL
same,MIC,organism code QQ,25 µg/mL
same,MIC,organism code RR,0.2 µg/mL
same,MIC,organism code SS,> 100 µg/mL
same,MIC,organism code TT,> 100 µg/mL
same,MIC,organism code UU,0.78 µg/mL
same,MIC,organism code VV,0.02 µg/mL
same,MIC,organism code WW,2 µg/mL
same,MIC,organism code XX,0.015 µg/mL
same,MIC,organism code YY,≤ 0.004 µg/mL
same,MIC,organism code ZZ,16 µg/mL
same,MIC,organism code ZZA,0.25 µg/mL
"CC[C@H]1OC(=O)[C@H](C)C(=O)[C@H](C)[C@@H](O[C@@H]2O[C@H](C)C[C@H](N(C)C)[C@H]2O)[C@@](C)(OCCNOCc2ccccc2)C[C@@H](C)C(=O)[C@H](C)[C@H]2NC(=O)O[C@@]21C [Example 237, Compound of Formula (IX): L is CO, T is NH, R is —CH2CH2NHOCH2(phenyl)]",MIC,organism code AA,0.39 µg/mL
same,MIC,organism code BB,0.39 µg/mL
same,MIC,organism code CC,> 100 µg/mL
same,MIC,organism code DD,0.39 µg/mL
same,MIC,organism code EE,0.39 µg/mL
same,MIC,organism code FF,0.39 µg/mL
same,MIC,organism code GG,> 100 µg/mL
same,MIC,organism code HH,0.39 µg/mL
same,MIC,organism code II,0.1 µg/mL
same,MIC,organism code JJ,0.05 µg/mL
same,MIC,organism code KK,0.05 µg/mL
same,MIC,organism code LL,0.05 µg/mL
same,MIC,organism code MM,> 100 µg/mL
same,MIC,organism code NN,0.2 µg/mL
same,MIC,organism code OO,0.05 µg/mL
same,MIC,organism code PP,0.39 µg/mL
same,MIC,organism code QQ,> 100 µg/mL
same,MIC,organism code RR,0.39 µg/mL
same,MIC,organism code SS,> 100 µg/mL
same,MIC,organism code TT,> 100 µg/mL
same,MIC,organism code UU,0.78 µg/mL
same,MIC,organism code VV,0.39 µg/mL
same,MIC,organism code WW,16 µg/mL
same,MIC,organism code XX,0.03 µg/mL
same,MIC,organism code YY,0.03 µg/mL
same,MIC,organism code ZZ,> 128 µg/mL
same,MIC,organism code ZZA,0.05 µg/mL
"CC[C@H]1OC(=O)[C@H](C)C(=O)[C@H](C)[C@@H](O[C@@H]2O[C@H](C)C[C@H](N(C)C)[C@H]2O)[C@@](C)(OCCNCc2cnc3ccccc3c2)C[C@@H](C)C(=O)[C@H](C)[C@H]2NC(=O)O[C@@]21C [Example 226, Compound of Formula (IX): L is CO, T is NH, R is —CH2CH2NHCH2(3-quinolyl)]",MIC,organism code AA,0.1 µg/mL
same,MIC,organism code BB,0.1 µg/mL
same,MIC,organism code CC,> 100 µg/mL
same,MIC,organism code DD,0.1 µg/mL
same,MIC,organism code EE,0.1 µg/mL
same,MIC,organism code FF,0.1 µg/mL
same,MIC,organism code GG,> 100 µg/mL
same,MIC,organism code HH,0.1 µg/mL
same,MIC,organism code II,0.05 µg/mL
same,MIC,organism code JJ,0.01 µg/mL
same,MIC,organism code KK,0.02 µg/mL
same,MIC,organism code LL,0.01 µg/mL
same,MIC,organism code MM,6.2 µg/mL
same,MIC,organism code NN,0.39 µg/mL
same,MIC,organism code OO,0.02 µg/mL
same,MIC,organism code PP,0.1 µg/mL
same,MIC,organism code QQ,6.2 µg/mL
same,MIC,organism code RR,0.2 µg/mL
same,MIC,organism code SS,12.5 µg/mL
same,MIC,organism code TT,> 100 µg/mL
same,MIC,organism code UU,9.78 µg/mL
same,MIC,organism code VV,0.05 µg/mL
same,MIC,organism code WW,2 µg/mL
same,MIC,organism code XX,0.03 µg/mL
same,MIC,organism code YY,0.03 µg/mL
same,MIC,organism code ZZ,> 128 µg/mL
same,MIC,organism code ZZA,2 µg/mL
